Assay results reported in patent US20080057010A1, “METHOD FOR SKIN CARE” (NULIV SCIENCE LTD., priority 2006, published 2008).

Assays:
[1] = test system: collagen I; assay: Collagen I expression and secretion in human HDF cells (western blot); format: cell-based; settings: relative to 0 = 1.00
Description: Primary human dermal fibroblasts cells (HDF) were purchased from Cascade Biologics (Portland, Oreg., USA) and cultured in medium 106 supplemented with 10% fetal bovine serum (FBS), 100 IU/mL penicillin, 100 μg/mL of streptomycin. The cells from passages 4 to 10 were used for this study. Culture medium was replaced every other day. After confluence, the cells were subcultured following trypsinization. For subcultures cells were harvested after brief treatment with 0.1% trypsin/EDTA solution and seeded at a dilution of 1:10. The cells were seeded at 1×10^5 cells in 6-well culture plate for 24 h before treated with astragalosides or crude extracts, such as butanol fraction and water insoluble fraction of Astragalus membranaceus for the indicated time periods. Control cultures were maintained in medium supplemented with vehicle (dimethyl sulfoxide, DMSO, 0.1%). No growth and differentiation effects of DMSO were observed under these culture conditions.
(§1) The cells were treated with pure compounds such as astragaloside I (AS 1), astragaloside II (AS2), astragaloside III (AS3), astragaloside IV (AS4), astragaloside VI (AS6), isoastragaloside I (isoAS1), isoastragaloside II (isoAS2), and cycloastragenol 6-O-β-D-glucopyranose (AA) at concentrations of 0-10 μM. Alternatively, the cells were also treated with the crude extracts, such as butanol fraction and water insoluble fraction of Astragalus membranaceus at concentrations of 0, 1, 10, and 40 μg/mL. The cells were treated with the indicated compounds or the extracts for 24 h before harvested for analysis of collagen I and III expressed in the whole cell extract or secreted into the culture medium.
(§2) Western blot analysis was carried out on both of cultured medium and cell lysates. The cells were plated on 6-cm dishes at a density of 1×10^6 cells/dish for 24 h prior to treatment with indicated concentrations of astragalus triterpenoids as indicated for another 48 h. The conditioned culture mediums were then centrifuged, 2-fold concentrated and collected for assay of collagens and MMPs secreted into the culture medium. The cells were washed and lysed in 0.2 mL of lysis buffer (1% NP-40, 50 mM Tris-HCl, pH 7.4, 180 mM NaCl, 1 mM EDTA, 1 mM PMSF, 1 mM NaF, 10 mM Na3VO4) for 30 min at 4° C. After centrifuging at 17500 g for 15 min, the supernatants of cell lysate were also collected. Protein concentration of the samples were measured using the bicinchoninic acid (BCA) protein assay kit according to the manufacturer's protocol (Pierce, Rockford, Ill., USA). Equal amount of protein samples of concentrated conditioned medium (100 μg) or cell lysate supernatants (50 μg) were mixed with an appropriate volume of 4×SDS sampling buffer and separated by 8% SDS-PAGE gel. The protein bands separated in the SDS-PAGE gel were blotted onto a polyvinylidene fluoride (PVDF) membrane. The blotted PVDF membrane was washed twice and blocked in freshly prepared Tris-buffered saline (TBS) containing 0.1% Tween-20 and 7% skim milk (TBST) for 2 h at room temperature. The PVDF membrane was then incubated with either antibodies against collagen I and III or the housekeeping protein α-tubulin (Santa Cruz Biotechnology, Santa Cruz, Calif.) for 18 h at 4° C. Horseradish peroxidase-conjugated anti-goat antibody was used as secondary antibody. Signals were visualized by an enhanced chemiluminescence kit (Clonetech, Palo Alto, Calif., USA) followed by exposure to X-ray films.
The collagen expression in the human HDF cells was also determined. […] And Collage I was over-expressed in the cells treated with various doses (1, 10, 40 μg/mL) of the crude extracts, such as butanol fraction and water insoluble fraction of Astragalus membranaceus.

[2] = test system: HA synthase 2 (HAS2); assay: Quantitative analysis of HA synthase 2 (HAS2) transcripts in HaCaT cells (qRT-PCR); format: cell-based, human; settings: 0.1 μM, qRT-PCR normalized to GAPDH, relative to 0 = 1.00
Description: Relative levels of HAS2 expression in HaCaT cells were determined by real-time quantitative reverse transcriptase polymerase chain reaction (qRT-PCR). Total RNAs were isolated from the cultured human cells using TRIzol reagent (Invitrogen, Irvine, Calif., USA). 1 μg of RNA was reverse transcribed, at 37° C. for 60 min in a 20 μl transcription mixture containing dNTP (0.5 mM), oligo-dT (0.1 μg), RNasin (10 units), 1×PCR buffer (20 mM Tris-HCl, pH 8.3; 2.5 mM MgCl2; 50 mM KCl), and 100 units of Moloney murine leukemia virus reverse transcriptase (Invitrogen). The cDNA product was phenol extracted, ethanol precipitated, and resuspended in 20 μl TE (20 mM Tris-Cl, pH 8.0 and 1 mM EDTA). qRT-PCR was performed using the Applied Biosystem 7300 system and pre-developed Taqman Gene Expression Assays (Applied Biosystems, Foster City, Calif., USA). The reaction mixtures (20-μl total volume) contained 2 μl of serially diluted cDNA, 10 μl of Taqman Universal PCR Master Mix (Applied Biosystems), and 1 μl of either human HAS-2 gene (assay ID Hs 00193435_ml, Applied Biosystems), or GAPDH primer mix (assay ID Hs99999905_ml, Applied Biosystems). The reactions were amplified as follows: 50° C. for 2 min and 95° C. for 10 min, followed by 40 cycles of 95° C. for 1 min and 65° C. for 1 min. Two independent triplicate experiments were performed for the selected genes. Relative quantitation was performed using the 7300 software (Applied Biosystems, Foster City, Calif., USA). Expression of HAS-2 was normalized to GAPDH expression in each sample.

[3] = test system: collagen I; assay: Collagen I expression in human HaCaT cells (western blot); format: cell-based; settings: relative to 0 μM = 1.00
Description: The Spontaneously transformed human keratinocyte cell lines HaCaT cells were grown at 37° C. in a humidified incubator under 5% CO2 and 95% air in culture medium such as Dulbecco Modified Eagle Medium (DMEM) supplemented with 10% Fetal Bovine Serum (FBS), 100 IU/mL penicillin, 100 μg/mL of streptomycin, 2 mM sodium pyruvate and 1% Non-Essential Amino Acids (NEAA). The culture medium was replaced every other day. After confluence, the cells were subcultured following trypsinization. For subcultures cells were harvested after brief treatment with 0.1% trypsin/ethylenediaminetetraacetic acid (EDTA) solution and seeded at a dilution of 1:10. Cells between passages 12 and 45 were used for studies. The cells were seeded and incubated for 24 h before treated with the astragalosides for 24 h. Control cultures were maintained in medium supplemented with vehicle (dimethyl sulfoxide (DMSO) 0.1%). No growth and differentiation effects of DMSO were observed under these culture conditions.
as §1, §2
Results shown represent the quantitated data from western blot analysis. […] The collagen I was also over-expressed in the human HaCaT cells treated with 40 μg/mL of astragaloside extract.

Compound: CC(=O)O[C@H]1[C@H](O[C@H]2CC[C@]34C[C@]35CC[C@]3(C)[C@@H]([C@@]6(C)CC[C@@H](C(C)(C)O)O6)[C@@H](O)C[C@@]3(C)[C@@H]5C[C@H](O[C@@H]3O[C@H](CO)[C@@H](O)[C@H](O)[C@H]3O)[C@H]4C2(C)C)OC[C@@H](O)[C@@H]1O [AS2, astragaloside II]
- Collagen I in cell ([1]; 0.01 μM): 1.02
- Collagen I in medium ([1]; 0.01 μM): 1.24
- Collagen I in cell ([1]; 0.1 μM): 0.73
- Collagen I in medium ([1]; 0.1 μM): 1.15
- Collagen I in cell ([1]; 1 μM): 1.26
- Collagen I in medium ([1]; 1 μM): 1.02
- HAS-2 in cell [2]: 2.73
- Collagen I in cell ([3]; 0.01 μM): 0.86
- Collagen I in cell ([3]; 0.1 μM): 1.14
- Collagen I in cell ([3]; 1 μM): 1.87

Compound: CC(C)(O)[C@@H]1CC[C@](C)([C@H]2[C@@H](O)C[C@@]3(C)[C@@H]4C[C@H](O[C@@H]5O[C@H](CO)[C@@H](O)[C@H](O)[C@H]5O)[C@H]5C(C)(C)[C@@H](O[C@@H]6OC[C@@H](O)[C@H](O)[C@H]6O)CC[C@@]56C[C@@]46CC[C@]23C)O1 [AS4, astragaloside IV]
- Collagen I in cell ([1]; 0.01 μM): 1.16
- Collagen I in medium ([1]; 0.01 μM): 1.24
- Collagen I in cell ([1]; 0.1 μM): 1.33
- Collagen I in medium ([1]; 0.1 μM): 1.11
- Collagen I in cell ([1]; 1 μM): 1.07
- Collagen I in medium ([1]; 1 μM): 1.11
- HAS-2 in cell [2]: 1.41

Compound: CC(C)(O)[C@@H]1CC[C@](C)([C@H]2[C@@H](O)C[C@@]3(C)[C@@H]4C[C@H](O[C@@H]5O[C@H](CO)[C@@H](O)[C@H](O)[C@H]5O)[C@H]5C(C)(C)[C@@H](O[C@@H]6OC[C@@H](O)[C@H](O)[C@H]6O[C@@H]6O[C@H](CO)[C@@H](O)[C@H](O)[C@H]6O)CC[C@@]56C[C@@]46CC[C@]23C)O1 [AS6, astragaloside VI]
- Collagen I in cell ([1]; 0.01 μM): 1.18
- Collagen I in medium ([1]; 0.01 μM): 1.19
- Collagen I in cell ([1]; 0.1 μM): 1.41
- Collagen I in medium ([1]; 0.1 μM): 1.29
- Collagen I in cell ([1]; 1 μM): 1.30
- Collagen I in medium ([1]; 1 μM): 1.25

Compound: CC(=O)O[C@H]1[C@H](O[C@H]2CC[C@]34C[C@]35CC[C@]3(C)[C@@H]([C@@]6(C)CC[C@@H](C(C)(C)O)O6)[C@@H](O)C[C@@]3(C)[C@@H]5C[C@H](O[C@@H]3O[C@H](CO)[C@@H](O)[C@H](O)[C@H]3O)[C@H]4C2(C)C)OC[C@@H](OC(C)=O)[C@@H]1O [isoAS1, isoastragaloside I]
- Collagen I in cell ([1]; 0.01 μM): 0.71
- Collagen I in medium ([1]; 0.01 μM): 1.20
- Collagen I in cell ([1]; 0.1 μM): 1.11
- Collagen I in medium ([1]; 0.1 μM): 1.08
- Collagen I in cell ([1]; 1 μM): 1.27
- Collagen I in medium ([1]; 1 μM): 0.96
- HAS-2 in cell [2]: 1.12
- Collagen I in cell ([3]; 0.01 μM): 1.13
- Collagen I in cell ([3]; 0.1 μM): 1.06
- Collagen I in cell ([3]; 1 μM): 1.19

Compound: CC(=O)O[C@@H]1[C@@H](O)[C@H](O[C@H]2CC[C@]34C[C@]35CC[C@]3(C)[C@@H]([C@@]6(C)CC[C@@H](C(C)(C)O)O6)[C@@H](O)C[C@@]3(C)[C@@H]5C[C@H](O[C@@H]3O[C@H](CO)[C@@H](O)[C@H](O)[C@H]3O)[C@H]4C2(C)C)OC[C@H]1O [isoAS2, isoastragaloside II]
- HAS-2 in cell [2]: 1.28
- Collagen I in cell ([3]; 0.01 μM): 1.52
- Collagen I in cell ([3]; 0.1 μM): 0.94
- Collagen I in cell ([3]; 1 μM): 1.41

Compound: astragaloside I [AS1]
- Collagen I in cell ([3]; 0.01 μM): 1.13
- Collagen I in cell ([3]; 0.1 μM): 0.72
- Collagen I in cell ([3]; 1 μM): 1.22
